The source of these data is patent publication US20230091297A1, “INHIBITORS OF HSP70 PROTEINS” (ARIZONA BOARD OF REGENTS ON BEHALF OF THE UNIVERSITY OF …, priority 2020, published 2023).

Bounds are passed on as bounds.

One data set has as its target T1, HSPA9 (Homo sapiens, UniProt P38646).
T1 construct: His6 (N, cleaved yes); made in house; host or cells: E. coli (Codon plus)
T1 sequence (P38646 442-679 limits assumed): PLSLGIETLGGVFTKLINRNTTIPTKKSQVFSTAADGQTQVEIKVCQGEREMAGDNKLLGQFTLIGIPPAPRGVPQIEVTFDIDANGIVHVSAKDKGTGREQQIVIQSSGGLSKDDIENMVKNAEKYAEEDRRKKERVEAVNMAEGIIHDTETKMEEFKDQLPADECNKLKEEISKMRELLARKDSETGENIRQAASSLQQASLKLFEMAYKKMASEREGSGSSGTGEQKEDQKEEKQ
The data set can be described thus: FP peptide binding assay, HSPA9 SBD. The note with it: 1 μM HSP70 SBD, 10 nM fluorescent peptide, read-out: A9 IC50.

The target in data set [1] is T2, HSPA1A (Homo sapiens, UniProt P0DMV8). Nature of the data set: FP peptide binding assay, HSPA1A SBD. On the set-up: His6 (N, cleaved yes); made in house; host or cells: E. coli (Codon plus). The note with it: 1 μM HSP70 SBD, 10 nM fluorescent peptide, read-out: A1A IC50.
Target sequence in this assay (P0DMV8 394-509 limits assumed): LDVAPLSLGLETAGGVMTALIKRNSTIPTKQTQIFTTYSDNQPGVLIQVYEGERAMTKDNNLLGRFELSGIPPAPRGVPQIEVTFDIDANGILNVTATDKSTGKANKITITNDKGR
A further data set has as its target T3, HSPA2 (Homo sapiens, UniProt P54652).
T3 construct: His6 (N, cleaved yes); made in house; host or cells: E. coli (Codon plus)
The data set can be described thus: FP peptide binding assay, HSPA2 SBD. The note with it: 1 μM HSP70 SBD, 10 nM fluorescent peptide, read-out: A2 IC50.

Another data set has as its target T4, HSA (Homo sapiens, UniProt P02768).
T4 construct: Each sample contained 20 μM HSA in PBS at pH 7.4; from tissue; host or cells: human serum
Nature of the data set: Serum binding assay (dansylamide and BD140 probes). Type of data set: in vitro ADME. The note with it: 50 μM compound, 20 μM HSA.

Data set [2] concerns the target T5, HSPA8 (Homo sapiens, UniProt P11142). Nature of the data set: FP peptide binding assay, HSPA8 SBD. On the set-up: His6 (N, cleaved yes); made in house; host or cells: E. coli (Codon plus). The note with it: 1 μM HSP70 SBD, 10 nM fluorescent peptide, read-out: A8 IC50.
Target sequence in this assay (P11142 394-509 limits assumed): as the sequence (P0DMV8 394-509 limits assumed) above, with A4T, L10I, A19V, S25T, I34T, R65K, S69T, T96S, T98V, A105E counted along it
The next data set relates to cancer cell lines. The data set can be described thus: ZIP synergy with CB5083, growth inhibition. Type of data set: cell-based. Conditions: combination of CB5083 and 8 (FIG. 9A).
A further data set has as its system 60 cancer cell lines. Nature of the data set: NCI-60 human tumor cell line screen. It counts as cell-based. The note with it: fixed concentration of 10 μM (FIG. 8).
The next data set has as its system U251 glioblastoma cells. Nature of the data set: Cellular synergy, U251 growth rate (incucyte confluence). It counts as cell-based. Conditions: 10 μM of 8 (FIG. 12).
A further data set concerns the target T6, HSPA6 (Homo sapiens, UniProt P17066).
T6 construct: His6 (N, cleaved yes); made in house; host or cells: E. coli (Codon plus)
Nature of the data set: FP peptide binding assay, HSPA6 SBD. Conditions: 1 μM HSP70 SBD, 10 nM fluorescent peptide, read-out: A6 IC50.

The target of the next data set is HSPA5 (Homo sapiens, UniProt P11021). Nature of the data set: FP peptide binding assay, HSPA5 (HSPA5-NRLLLTG interaction). The arrangement: His6 (N, cleaved yes); made in house; host or cells: E. coli (Codon plus). The note with it: FP, 1 μM HSP70 SBD, 10 nM fluorescent peptide; read-out: A5 IC50.
Data set [3] deals with T7, HspA5 substrate binding domain (Homo sapiens, UniProt P11021).
T7 construct: HspA5SBD); His6-Smt3 (N, cleaved yes); made in house; host or cells: E. coli BL21-Codon+
The data set can be described thus: 15N-HSQC NMR of HspA5 substrate binding domain. Conditions: FIG. 11.

Data set [4] can be described thus: Solubility (comparison in words). Type of data set: physicochemical.
Data set [5] concerns canonical human HSP70 isoforms. Nature of the data set: FP binding of fluorescent peptides to HSP70 substrate binding domains. Conditions: FIG. 4A.
Data set [6] addresses T5, HSPA8. Conditions: read-out: NRLLLTG affinity for HSPA8; reported in the literature; cited from earlier work.
Target sequence in this assay (P11142 whole entry): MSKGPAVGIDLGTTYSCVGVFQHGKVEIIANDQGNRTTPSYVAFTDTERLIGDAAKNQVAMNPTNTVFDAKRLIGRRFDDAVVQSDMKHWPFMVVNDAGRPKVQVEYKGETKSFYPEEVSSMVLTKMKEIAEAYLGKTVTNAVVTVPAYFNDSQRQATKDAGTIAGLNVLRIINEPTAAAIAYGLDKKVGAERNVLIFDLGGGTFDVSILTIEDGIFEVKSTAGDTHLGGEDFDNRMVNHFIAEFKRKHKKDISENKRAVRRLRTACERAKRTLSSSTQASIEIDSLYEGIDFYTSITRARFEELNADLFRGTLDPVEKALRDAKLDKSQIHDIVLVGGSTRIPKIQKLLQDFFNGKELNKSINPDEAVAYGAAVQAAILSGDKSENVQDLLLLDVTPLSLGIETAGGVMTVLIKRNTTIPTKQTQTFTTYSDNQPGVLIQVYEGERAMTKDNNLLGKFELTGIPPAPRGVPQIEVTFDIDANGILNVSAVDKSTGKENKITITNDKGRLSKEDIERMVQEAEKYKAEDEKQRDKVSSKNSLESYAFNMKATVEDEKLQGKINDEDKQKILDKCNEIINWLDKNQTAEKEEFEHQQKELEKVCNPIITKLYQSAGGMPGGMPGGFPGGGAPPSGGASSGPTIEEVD
In data set [7] the target is T2, HSPA1A. The note with it: read-out: NRLLLTG affinity for HSPA1A; reported in the literature; cited from earlier work.
Target sequence in this assay (P0DMV8 whole entry): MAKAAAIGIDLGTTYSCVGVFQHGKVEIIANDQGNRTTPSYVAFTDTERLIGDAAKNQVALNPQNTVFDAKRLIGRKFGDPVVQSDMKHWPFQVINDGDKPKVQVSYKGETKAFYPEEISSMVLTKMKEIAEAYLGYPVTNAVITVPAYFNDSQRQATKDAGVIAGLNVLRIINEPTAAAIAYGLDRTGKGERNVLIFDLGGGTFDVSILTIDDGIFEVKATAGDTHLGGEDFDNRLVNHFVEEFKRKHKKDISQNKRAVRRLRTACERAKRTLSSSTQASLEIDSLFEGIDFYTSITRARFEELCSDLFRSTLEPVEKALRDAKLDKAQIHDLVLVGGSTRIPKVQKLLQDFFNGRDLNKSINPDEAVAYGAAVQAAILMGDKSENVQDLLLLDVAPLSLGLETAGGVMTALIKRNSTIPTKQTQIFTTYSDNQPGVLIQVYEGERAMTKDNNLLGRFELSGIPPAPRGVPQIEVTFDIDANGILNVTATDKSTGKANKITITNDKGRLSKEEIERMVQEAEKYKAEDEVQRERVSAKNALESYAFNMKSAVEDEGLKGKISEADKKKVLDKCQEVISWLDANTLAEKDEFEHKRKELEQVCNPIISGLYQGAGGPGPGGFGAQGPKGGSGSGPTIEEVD

HSPA5, sequence (P11021 419-632): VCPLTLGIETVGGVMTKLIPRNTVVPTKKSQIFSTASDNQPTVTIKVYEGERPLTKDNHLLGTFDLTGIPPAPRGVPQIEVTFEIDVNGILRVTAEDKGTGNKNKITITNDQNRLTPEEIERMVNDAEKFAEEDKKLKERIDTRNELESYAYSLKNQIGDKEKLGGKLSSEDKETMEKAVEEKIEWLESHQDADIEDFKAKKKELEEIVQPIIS
T7 sequence (P11021 418-635): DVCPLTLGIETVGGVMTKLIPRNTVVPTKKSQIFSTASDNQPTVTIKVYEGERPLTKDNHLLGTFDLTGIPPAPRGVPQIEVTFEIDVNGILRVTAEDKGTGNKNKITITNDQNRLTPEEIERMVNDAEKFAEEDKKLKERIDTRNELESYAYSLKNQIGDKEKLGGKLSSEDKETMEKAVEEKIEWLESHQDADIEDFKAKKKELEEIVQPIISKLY
T4 sequence (P02768 25-609): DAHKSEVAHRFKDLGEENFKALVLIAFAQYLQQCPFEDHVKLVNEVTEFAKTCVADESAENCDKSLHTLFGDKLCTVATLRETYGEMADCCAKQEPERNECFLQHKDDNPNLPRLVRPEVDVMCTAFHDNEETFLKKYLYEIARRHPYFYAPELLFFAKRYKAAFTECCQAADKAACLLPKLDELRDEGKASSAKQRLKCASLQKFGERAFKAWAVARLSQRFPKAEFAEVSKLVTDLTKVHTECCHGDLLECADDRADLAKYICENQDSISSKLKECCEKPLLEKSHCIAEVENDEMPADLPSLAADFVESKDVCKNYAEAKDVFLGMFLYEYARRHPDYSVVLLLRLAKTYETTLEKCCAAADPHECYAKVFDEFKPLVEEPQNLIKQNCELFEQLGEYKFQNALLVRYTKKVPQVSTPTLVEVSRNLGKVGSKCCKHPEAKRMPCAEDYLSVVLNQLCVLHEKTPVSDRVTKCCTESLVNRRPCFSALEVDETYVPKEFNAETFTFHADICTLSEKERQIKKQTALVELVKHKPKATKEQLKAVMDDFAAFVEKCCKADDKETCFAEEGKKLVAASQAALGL
T3 sequence (P54652 397-512 limits assumed): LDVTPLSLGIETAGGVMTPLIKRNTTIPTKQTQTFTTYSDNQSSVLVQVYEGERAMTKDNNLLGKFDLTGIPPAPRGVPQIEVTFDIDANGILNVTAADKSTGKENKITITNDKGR
T6 sequence (P17066 396-511 limits assumed): as the sequence (P0DMV8 394-509 limits assumed) above, with A19T, K22Q, S25A, I34T, L46F, N94S, K100R counted along it

As for `CC(C)[C@H](NC(=O)c1cc2ccccc2[nH]1)C(=O)Nc1nccs1` [Compound 8], the IC50 at HSPA9 was 4.3 µM; at HSPA1A [1], > 50 µM; on HSPA2, 13.9 µM; at HSPA8 [2] it was 43.5 µM; on HSPA6 it was > 50 µM. At HSA, the “Serum Binding” value is listed as <10%. The “ZIP synergy with p97 inhibitor CB5083” value in the data set on cancer cell lines was “growth inhibition was observed when both compounds are present a concentration where neither showed activity independently”. Also, the “growth inhibition in NCI-60 panel” value with 60 cancer cell lines is listed as “did not indicate significant decrease in growth rates”. The “growth inhibition with ER stress inducers MG132, thapsigargin, and CB5082” value in the data set on U251 glioblastoma cells was “inhibits growth of these cells in a synergistic manner”.

For the compound `CC(C)[C@H](NC(=O)c1cccs1)C(=O)O` [Compound 17, (thiophene-2-carbonyl)-L-valine], the half-inhibitory concentration (IC50) at HSPA5 is > 50 µM.

In the case of `CC(=O)c1ccc2[nH]c(C(=O)N[C@H](C(=O)Nc3nccs3)C(C)C)cc2c1` [Compound 24, (S)-5-acetyl-N-(3-methyl-1-oxo-1-(thiazol-2-ylamino)butan-2-yl)-1H-indole-2-carboxamide], the IC50 at HSPA5 turned out to be 0.43 ± 0.09 µM. The “binding to HSPA5 SBD by HSQC” value in data set [3] is “binds to HSPA5 in a manner that stabilizes its structure”. Further, the “solubility (comparison)” value in data set [4] is recorded as “much more soluble than compound 8”.

As to “FITC-NR: Fluorescent peptide (FITC-NRLLLTG) used as FP probe”, the “binding of fluorescent peptide to HSP70 isoforms” value in data set [5] was “only bound tightly to HSPA5 and HSPA9”.

Regarding NRLLLTG, the Kd on HSPA8 [6] and at HSPA1A [7] was 10 µM throughout.

For the compound “P1: fluorescent peptide FAM-ALLLSAPRR that binds human HSP70 isoforms [Compound P1]”, in data set [5], the “binding of fluorescent peptide to HSP70 isoforms” value is “bound with high affinity to all isoforms except HSPA1L”.
